Patent US10179775B2, “Cyclooctenes for bioorthogonol reactions” (The General Hospital Corporation, priority 2014, dated 2019)
Entries after “also recorded” stand apart in the source; their conditions may differ.

Experiments:
Assay type in all cases: physicochemical
[1] = Chemical stability in the presence of mercaptoethanol by 1H NMR; parameters: Icis / Itrans: unit not given here; details: 37° C.; for Icis / Itrans / Itrans/(Icis + Itrans): mercaptoethanol
Experimental: (§1) The chemical stability of the compounds of Examples 1-3 was also investigated in the presence of thiols (cysteine and mercaptoethanol) by NMR in D2O:DMSO-d6 10:1 v/v at 37° C.
(§2) The solutions were prepared by the dilution of a stock solution prepared in DMSO-d6. An end concentration of 20 mM of the cyclooctenes was used except for the s-TCO, which was used in 10 mM end concentration due to poorer solubility. A 20 mM solution could not be prepared by dilution with D2O from DMSO-d6 stock solution without the precipitation of s-TCO. Nucleophiles mercaptoethanol and cysteine were used in 48 mM end concentration. Cysteine precipitated very soon from the solution. In all cases reactions were followed by ^1H NMR.
Measurements were taken in the following intervals: mercaptoethanol: 0 h, 2 h, 11 h, 17 h and 25 h; cysteine: 0 h, 6 h and 14 h; s-TCO without nucleophile at room temperature: 1 h, 7 h and 14 h. […]

[2] = Chemical stability in the presence of cysteine by 1H NMR; details: 37° C.
Experimental: as §1, §2
(§3) Measurements were taken in the following intervals: mercaptoethanol: 0 h, 2 h, 11 h, 17 h and 25 h; cysteine: 0 h, 6 h and 14 h; s-TCO without nucleophile at room temperature: 1 h, 7 h and 14 h.
(§4) In each case the ratio of the integrals of the cis-double bond to the sum of the integrals of the cis- and trans-double bonds was calculate.

[3] = Spontaneous isomerization in D2O or D2O:DMSO-d6 without nucleophile by 1H NMR
Experimental: Bulk samples of the compounds described above in Examples 1-3 were stored at −20° C. for six months. […] The spontaneous isomerization took almost 5 days at 37° C. and more than 12 days at room temperature. […] With 22, a similar degree of isomerization was observed only after 63 hours at room temperature in D2O.
as §3, §4

[4] = Solubility in DMSO/water (D2O) mixtures; details: dilution with D2O from DMSO-d6 stock solution (D2O:DMSO-d6 10:1)
Experimental: as §2
The conjugates were tested in imaging experiments (FIG. 1). An advantage of the new trans cyclooctene derivatives lies in their improved solubility in DMSO/water mixtures. Bioorthogonal imaging experiments of PARP protein in HT1080 cells (expressing PARP1 fused to mCherry) were successful with all three new compounds, (FIG. 1). The imaging experiments were performed by treating HT1080 cells (expressing PARP1 fused to mCherry) with 5 μM compound 45 (a-d), 46 (e-h) and 47 (i-l) for 30 minutes. After washing with growth media three times for 5 minutes each, cells were incubated for 30 minutes with 1 μM of CFDA-Tz for bio-orthogonal reaction inside the live cells. Following fixation, 40× images were collected by deconvolution microscopy a, e, i) bright field images; b, f, j) Olaparib-TCO/Tz-CFDA staining; c, g, k) PARP1-mCherry, d, h, l) merged images (see FIG. 1). […]

[5] = Chemical stability in the presence of cysteine by 1H NMR; details: 37° C.; remark: listed apart in the source
[6] = Spontaneous isomerization in D2O or D2O:DMSO-d6 without nucleophile by 1H NMR; details: D2O:DMSO-d6 (10:1 v/v), room temperature, no nucleophile
[7] = D2O:DMSO-d6 (10:1 v/v), room temperature, no nucleophile, t 1 h
[8] = D2O:DMSO-d6 (10:1 v/v), room temperature, no nucleophile, t 7 h
[9] = D2O:DMSO-d6 (10:1 v/v), room temperature, no nucleophile, t 14 h

## OCC1C2CCC=CCCC12 (centres unmarked) [s-TCO, reference compound]
[1]; 48 mM mercaptoethanol, 20 mM cyclooctene (s-TCO 10 mM), D2O:DMSO-d6 10:1 v/v, 0-25 h
  chemical stability / isomerization, result in words: isomerization of the trans isomer to the cis isomer; also recorded: occurred together with unidentified side reactions; also recorded: undergo isomerization/decomposition; also recorded: most of the s-TCO disappeared within the first two hours
[1]; t 0 h
  Icis: 1.19
  Itrans: 2
  Itrans/(Icis + Itrans): 0.627
[1]; t 2 h
  Icis: 87
  Itrans: 2
  Itrans/(Icis + Itrans): 0.023
[1]; t 11 h
  Icis: 2
  Itrans: 0
  Itrans/(Icis + Itrans): 0
[1]; t 17 h
  Icis: 2
  Itrans: 0
  Itrans/(Icis + Itrans): 0
[1]; t 25 h
  Icis: 2
  Itrans: 0
  Itrans/(Icis + Itrans): 0
[2]; 48 mM cysteine, 20 mM cyclooctene (s-TCO 10 mM), D2O:DMSO-d6 10:1 v/v, 0-14 h
  chemical stability / isomerization, result in words: isomerization of the trans isomer to the cis isomer; also recorded: isomerization of the trans-isomer to the cis-isomer; also recorded: undergo isomerization/decomposition
[2]; cysteine, 6 hours
  trans-isomer still present after 6 hours: 65%
[2]; cysteine, t 0 h
  Icis: 0.19
  Itrans: 2
[2]; cysteine, t 6 h
  Icis: 1.07
  Itrans: 2
[2]; cysteine, t 14 h
  Icis: 8.42
  Itrans: 2
[3]; D2O:DMSO-d6 10:1, room temperature, 14 hours
  isomerization after 14 hours: at least 5%
[3]; D2O:DMSO-d6 (10:1 v/v), room temperature, no nucleophile, t 0 h
  Itrans/(Icis + Itrans): 1
[3]; [7]
  Icis: 0.03
  Itrans: 2
[3]; [8]
  Icis: 0.06
  Itrans: 2
[3]; [9]
  Icis: 0.1
  Itrans: 2
[4]
  concentration preparable without precipitation: < 20000 µM
[5]; t 0 h
  Itrans/(Icis + Itrans): 0.913
[5]; t 6 h
  Itrans/(Icis + Itrans): 0.652
[5]; t 14 h
  Itrans/(Icis + Itrans): 0.192
[6]; t 0 h
  Icis: 0
  Itrans: 2
[6]; t 1 h
  Itrans/(Icis + Itrans): 0.985
[6]; t 7 h
  Itrans/(Icis + Itrans): 0.971
[6]; t 14 h
  Itrans/(Icis + Itrans): 0.952
